Values after ≈ are worked out from the molar mass of the structure shown.
Key:
Assay in all cases: Antibacterial activity, agar dilution MIC
Type in all cases: cell-based
[1] = tested on: Acinetobacter baumanii ATCC 17978; details: Acinetobacter baumannii, ATCC17978, 20-24 hrs incubation, read-out: minimum inhibitory concentration MIC
How it was run: (§1)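 Strains are cultured overnight at 35° C, 5% CO2 in MHIIA, supplemented with 5% sheep blood for S. pneumoniae, then centrifuged and resuspended in PBS to 10^8 CFU.mL^−1. Compounds, serially halved from a 20 mg/ml DMSO stock, are tested by CLSI agar dilution; MICs are recorded after 20-24 hrs.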

[2] = tested on: Acinetobacter baumannii ATCC-BAA-1605; details: ATCCBAA1605, 20-24 hrs incubation, read-out: minimum inhibitory concentration MIC
How it was run: as §1

[3] = tested on: Enterococcus faecalis ATCC 29212; details: ATCC29212, 20-24 hrs incubation, read-out: minimum inhibitory concentration MIC
How it was run: as §1

[4] = tested on: Moraxella catarrhalis ATCC 43617; details: ATCC43617, 20-24 hrs incubation, read-out: minimum inhibitory concentration MIC
How it was run: as §1

[5] = tested on: Staphylococcus aureus ATCC 29213; details: ATCC29213, 20-24 hrs incubation, read-out: minimum inhibitory concentration MIC
How it was run: as §1

[6] = tested on: Staphylococcus aureus NRS 384; details: NRS384, 20-24 hrs incubation, read-out: minimum inhibitory concentration MIC
How it was run: as §1

[7] = tested on: Streptococcus pneumoniae ATCC 49619; details: ATCC49619, 20-24 hrs incubation, read-out: minimum inhibitory concentration MIC
How it was run: as §1

[8] = tested on: Streptococcus pneumoniae ATCC 6301; details: ATCC6301, 20-24 hrs incubation, read-out: minimum inhibitory concentration MIC
How it was run: as §1

[9] = tested on: Streptococcus pyogenes ATCC BAA-572; details: ATCCBAA572, 20-24 hrs incubation, read-out: minimum inhibitory concentration MIC
How it was run: as §1

- MIC [1]: 64 µg/mL (≈ 87.2 µM)
- MIC [2]: 16 µg/mL (≈ 21.8 µM)
- MIC [3]: 1 µg/mL (≈ 1.36 µM)
- MIC [4]: 2 µg/mL (≈ 2.73 µM)
- MIC [5]: 0.5 µg/mL (≈ 0.681 µM)
- MIC [6]: 64 µg/mL (≈ 87.2 µM)
- MIC [7]: < 0.125 µg/mL
- MIC [8]: < 0.125 µg/mL
- MIC [9]: < 0.125 µg/mL
SMILES: CC[C@H]1OC(=O)[C@H](C)[C@@H](O[C@H]2C[C@@](C)(OC)[C@@H](O)[C@H](C)O2)[C@H](C)[C@@H](O[C@@H]2O[C@H](C)C[C@H](N(C)C)[C@H]2O)[C@](C)(O)C[C@@H](C)C(=O)[C@H](C)[C@@H](O)[C@]1(C)O [Erythromycin, reference compound]
